In patent US10202347B2, “Compound, production method therefor, and use of said compound” (MICROBIAL CHEMISTRY RESEARCH FOUNDATION, priority 2013, dated 2019):
Read-outs that look alike come from different tables or passages of the source.

Assays:
[1] = tested on: Staphylococcus aureus FDA209P strain; test: Measurement of MIC for Staphylococcus aureus; assay type: cell-based; conditions: read-out: MIC Staphylococcus aureus FDA209P
Protocol: (§1) Each of the above compounds was measured for minimum inhibitory concentration (MIC) for Staphylococcus aureus and Escherichia coli.
(§2) Staphylococcus aureus FDA209P strain and Escherichia coli K-12 strain each were cultured under shaking in a nutrient broth medium (polypeptone (product of NIHON PHARMACEUTICAL Co.) 1%, fish extract for bacteria (product of KYOKUTO PHARMACEUTICAL INDUSTRIAL Co.) 1%, and sodium chloride 0.2%) at 37° C. overnight.
(§3) After completion of the culturing, the culture was diluted with the nutrient broth medium so that the bacteria were 2×10^6 CFU/mL to 9×10^6 CFU/mL.
(§4) Each of the test samples (each of the above compounds, clarithromycin, and ampicillin) was prepared with the nutrient broth medium to have a concentration of 256 mg/L. From this concentration, the test sample was 2-fold diluted serially in 11 steps to 0.125 mg/L.
(§5) The above-diluted culture was added at 50 μL/well to 50 μL/well of the nutrient broth medium containing each of the test samples at the above concentrations, and was statically cultured at 37° C. overnight. After completion of the culturing, the presence or absence of proliferation of each bacterium was visually determined based on turbidity, and the MIC for each bacterial strain was obtained.

[2] = tested on: Escherichia coli K-12 strain; test: Measurement of MIC for Escherichia coli; assay type: cell-based; conditions: K12STRAIN, read-out: MIC Escherichia coli K-12
Protocol: as §1, §2, §3, §4, §5

[3] = Acute toxicity test (maximum tolerated dose); conditions: female, ICR, mouse, in vivo, iv
Text: ICR mice (female, 4 weeks old, product of Charles River Co.) were bred under the SPF conditions.
One half of the administration dose at which the mice were recognized to be dead or have serious toxicity for the observation period of 2 weeks was defined as the maximum tolerated dose (MTD) in the present experiment.

[4] = tested on: human stomach cancer cells MKN-74; test: Cell proliferation test, monoculture test (GFP fluorescence); assay type: cell-based
Protocol: Human stomach cancer cells MKN-74 (Riken Cell Bank) were cultured at 37° C. and 5% CO2 in DMEM supplemented with 10% FBS (product of GIBCO Co.), 100 units/mL penicillin G (product of Invitrogen Co.), and 100 μg/mL streptomycin (product of Invitrogen Co.).
The above cancer cells were allowed to undergo gene transfer of Green fluorescence protein (GFP) expression vector, pEGFP-C1 (product of BD Biosciences Co.) using the Lipofectamine reagent (product of Invitrogen Co.), to thereby clone cells stably expressing GFP.
Only DMEM containing 1% dialyzed serum, 5 μg/mL insulin, 5 μg/mL transferrine (product of Wako Pure Chemical Industries Co.), and 1.4 μM hydrocortisone (product of Sigma Co.) was placed in a 96-well plate at 0.1 mL/well, and respective evaluation samples (the compounds expressed by Structural Formulas (1) to (13)) were added thereto at respective concentrations, followed by maintaining at 37° C. and 5% CO2 for 2 days.
Next, the above human stomach cancer cells MKN-74 were dispersed in DMEM at 5×10^5 cells/mL, and were placed in the above plate at 10 μL/well, followed by further coculturing at 37° C. and 5% CO2 for 3 days.
Measurement of cell proliferation rates in the above coculture test and monoculture test was performed in the following manner.
The medium was removed from the wells of the above plate, and a cytolysis liquid (10 mM Tris-HCl [pH 7.4], 150 mM NaCl, 0.9 mM CaCl2, and 1% Triton X-100) was added thereto at 0.1 mL/well to lyse the cells. The fluorescence intensity of GFP was measured at an excitation wavelength of 485 nm and a fluorescence wavelength of 538 nm, and the cell proliferation rates were calculated from the following formula. Cell proliferation rate (%)=(Fluorescence intensity in the presence of the evaluation sample/Fluorescence intensity in the absence of the evaluation sample)×100

[5] = tested on: Helicobacter pylori JCM12093 strain; test: Measurement of MIC for Helicobacter pylori JCM12093; assay type: cell-based; conditions: for MIC: Helicobacter pylori, read-out: MIC Helicobacter pylori JCM 12093; for anti-Helicobacter pylori activity (in words): summary of Table 3, H. pylori JCM12093 and JCM12095 strains
Protocol: Each of the above compounds was measured for minimum inhibitory concentration (MIC) for Helicobacter pylori.
Helicobacter pylori JCM12093 strain and H. pylori JCM12095 strain each were statically cultured in a HP medium (brain heart infusion broth (product of Becton, Dickinson Co.) supplemented with 10% fetal bovine serum (product of Life Technologies Co.)) for 144 hours at 37° C. under microaerobic culture conditions (microaerobic conditions (N2:O2:CO2=85:5:10)).
After completion of the culturing, the culture was suspended with the HP medium and diluted so that Helicobacter pylori was 2×10^6 CFU/mL to 9×10^6 CFU/mL.
Each of the test samples (each of the above compounds, clarithromycin, and ampicillin) was prepared with the HP medium to have a concentration of 256 mg/L. From this concentration, the test sample was 2-fold diluted serially in 15 steps to 0.0078 mg/L.
as §5, with “HP” for “nutrient broth”, “cultured for 144 hours” for “cultured”, “under microaerobic culture conditions (microaerobic conditions (N2:O2:CO2=85:5:10)).” for “overnight.”

[6] = tested on: Haemophilus influenza T-196 strain; test: Measurement of MIC for Haemophilus influenza T-196; assay type: cell-based; conditions: read-out: MIC Haemophilus influenzae T-196
Protocol: Each of the above compounds was measured for minimum inhibitory concentration (MIC) for Haemophilus influenza.
Haemophilus influenza T-196 strain and H. influenza ARD476 strain each were statically cultured in a HI medium (Muller Hinton medium (product of Becton, Dickinson Co.) supplemented with 5% Fildes enrichment (product of Becton, Dickinson Co.)) at 37° C. overnight under aerobic conditions containing 5% carbon dioxide gas.
After completion of the culturing, the culture was suspended with the HI medium and diluted so that each Haemophilus influenza strain was 2×10^6 CFU/mL to 9×10^6 CFU/mL.
Each of the test samples (each of the above compounds, clarithromycin, and ampicillin) was prepared with the HI medium to have a concentration of 256 mg/L. From this concentration, the test sample was 2-fold diluted serially in 11 steps to 0.125 mg/L.
The above-diluted culture was added at 50 μL/well to 50 μL/well of the HI medium containing each of the test samples at the above concentrations, and was statically cultured for 18 hours at 37° C. under aerobic conditions containing 5% carbon dioxide gas.
After completion of the culturing, the presence or absence of proliferation of each bacterium was visually determined based on turbidity, and the MIC for each bacterial strain was obtained.

[7] = nutrient broth medium, 37° C. overnight
[8] = monoculture test, MKN-74 alone, cell proliferation rate, average of duplicate, read-out: Mono IC50
[9] = JCM12093, HP medium, 144 hours, 37° C., microaerobic
[10] = HI medium, 18 hours, 37° C., 5% carbon dioxide
[11] = intravenous administration, ICR mice, observed for 2 weeks, one half of the dose with death or serious toxicity, read-out: MTD

SMILES: CCCCCCCCc1c(C)c(=O)c2ccccc2n1CC(=O)O [Structural Formula (6)]
- MIC [1]: 128 µg/mL
- MIC [2, 7]: 128 µg/mL
- MTD at 2 weeks ([3]; MTD): ≥ 50 mg/kg
- IC50 [4, 8]: 71 µg/mL
- MIC [5, 9]: 1 µg/mL
- MIC [6, 10]: 128 µg/mL

SMILES: CCCCCCCc1c(C)c(=O)c2ccccc2n1CN=C(SC)SC [Structural Formula (13)]
- MIC [1]: 4 µg/mL
- MIC [2, 7]: > 128 µg/mL
- MTD at 2 weeks [3, 11]: ≥ 50 mg/kg
- IC50 ([4]; MKN-74, read-out: Mono IC50): 1.36 µg/mL
- MIC ([5]; JCM12093, 144 h): 2 µg/mL
- MIC [6, 10]: > 128 µg/mL

SMILES: CCCCCCCc1c(C)c(=O)c2ccccc2n1CNC(=S)SC [Structural Formula (12)]
- MIC [1]: > 128 µg/mL
- MIC [2, 7]: > 128 µg/mL
- MTD at 2 weeks [3, 11]: ≥ 50 mg/kg
- IC50 ([4]; MKN-74, read-out: Mono IC50): 39.5 µg/mL
- MIC ([5]; JCM12093, 144 h): 0.03 µg/mL
- anti-Helicobacter pylori activity (in words) [5]: exhibited anti-Helicobacter pylori activity at low concentrations
- MIC [6, 10]: > 128 µg/mL

SMILES: CCCCCCCc1c(C)c(=O)c2ccccc2n1CN=C=S [Structural Formula (11)]
- MIC [1, 7]: 4 µg/mL
- MIC [2]: > 128 µg/mL
- MTD at 2 weeks [3, 11]: 6.25 mg/kg
- IC50 [4, 8]: 89.5 µg/mL
- MIC [5, 9]: 0.016 µg/mL
- anti-Helicobacter pylori activity (in words) [5]: exhibited anti-Helicobacter pylori activity at low concentrations
- MIC ([6]; 18 h): > 128 µg/mL

SMILES: Cc1c(CC(C)C)[nH]c2ccccc2c1=O [Structural Formula (4)]
- MIC [1]: 128 µg/mL
- MIC [2, 7]: 128 µg/mL
- MTD at 2 weeks ([3]; MTD): 25 mg/kg
- IC50 [4, 8]: > 100 µg/mL
- MIC [5, 9]: 0.5 µg/mL
- MIC [6, 10]: 64 µg/mL

SMILES: CCCCCCCCc1c(C)c(=O)c2ccccc2n1CC(=O)OC [Structural Formula (5)]
- MIC [1]: > 128 µg/mL
- MIC [2, 7]: > 128 µg/mL
- MTD at 2 weeks ([3]; MTD): 6.25 mg/kg
- IC50 [4, 8]: > 100 µg/mL
- MIC [5, 9]: 2 µg/mL
- MIC [6, 10]: > 128 µg/mL

SMILES: Cc1c(CCCC/C=C/C(C)C)[nH]c2ccccc2c1=O [Structural Formula (3)]
- MIC [1]: > 128 µg/mL
- MIC [2, 7]: > 128 µg/mL
- MTD at 2 weeks [3, 11]: 1.56 mg/kg
- IC50 [4, 8]: > 100 µg/mL
- MIC [5, 9]: 0.008 µg/mL
- anti-Helicobacter pylori activity (in words) [5]: exhibited anti-Helicobacter pylori activity at low concentrations
- MIC [6, 10]: > 128 µg/mL

SMILES: CCCCCCCCc1nc2ccccc2c(OCC(=O)O)c1C [Structural Formula (2)]
- MIC [1, 7]: > 128 µg/mL
- MIC [2, 7]: 128 µg/mL
- MTD at 2 weeks ([3]; MTD): ≥ 50 mg/kg
- IC50 [4, 8]: 2.95 µg/mL
- MIC [5, 9]: 1 µg/mL
- MIC [6, 10]: 64 µg/mL
